Experimental data as given in ChEMBL document CHEMBL2073745, “Disruption of the mouse mdr1a P-glycoprotein gene leads to a deficiency in the blood-brain barrier and to increased sensitivity to drugs” (Cell, 1994).

Target: ATP-dependent translocase ABCB1 (Mus musculus, UniProt P21447)
Assay: TP_TRANSPORTER: increase in plasma concentration in mdr1a(-/-) mouse
Type: functional, organism-based
Conditions: in vivo

Chain of ATP-dependent translocase ABCB1 (P21447 whole entry): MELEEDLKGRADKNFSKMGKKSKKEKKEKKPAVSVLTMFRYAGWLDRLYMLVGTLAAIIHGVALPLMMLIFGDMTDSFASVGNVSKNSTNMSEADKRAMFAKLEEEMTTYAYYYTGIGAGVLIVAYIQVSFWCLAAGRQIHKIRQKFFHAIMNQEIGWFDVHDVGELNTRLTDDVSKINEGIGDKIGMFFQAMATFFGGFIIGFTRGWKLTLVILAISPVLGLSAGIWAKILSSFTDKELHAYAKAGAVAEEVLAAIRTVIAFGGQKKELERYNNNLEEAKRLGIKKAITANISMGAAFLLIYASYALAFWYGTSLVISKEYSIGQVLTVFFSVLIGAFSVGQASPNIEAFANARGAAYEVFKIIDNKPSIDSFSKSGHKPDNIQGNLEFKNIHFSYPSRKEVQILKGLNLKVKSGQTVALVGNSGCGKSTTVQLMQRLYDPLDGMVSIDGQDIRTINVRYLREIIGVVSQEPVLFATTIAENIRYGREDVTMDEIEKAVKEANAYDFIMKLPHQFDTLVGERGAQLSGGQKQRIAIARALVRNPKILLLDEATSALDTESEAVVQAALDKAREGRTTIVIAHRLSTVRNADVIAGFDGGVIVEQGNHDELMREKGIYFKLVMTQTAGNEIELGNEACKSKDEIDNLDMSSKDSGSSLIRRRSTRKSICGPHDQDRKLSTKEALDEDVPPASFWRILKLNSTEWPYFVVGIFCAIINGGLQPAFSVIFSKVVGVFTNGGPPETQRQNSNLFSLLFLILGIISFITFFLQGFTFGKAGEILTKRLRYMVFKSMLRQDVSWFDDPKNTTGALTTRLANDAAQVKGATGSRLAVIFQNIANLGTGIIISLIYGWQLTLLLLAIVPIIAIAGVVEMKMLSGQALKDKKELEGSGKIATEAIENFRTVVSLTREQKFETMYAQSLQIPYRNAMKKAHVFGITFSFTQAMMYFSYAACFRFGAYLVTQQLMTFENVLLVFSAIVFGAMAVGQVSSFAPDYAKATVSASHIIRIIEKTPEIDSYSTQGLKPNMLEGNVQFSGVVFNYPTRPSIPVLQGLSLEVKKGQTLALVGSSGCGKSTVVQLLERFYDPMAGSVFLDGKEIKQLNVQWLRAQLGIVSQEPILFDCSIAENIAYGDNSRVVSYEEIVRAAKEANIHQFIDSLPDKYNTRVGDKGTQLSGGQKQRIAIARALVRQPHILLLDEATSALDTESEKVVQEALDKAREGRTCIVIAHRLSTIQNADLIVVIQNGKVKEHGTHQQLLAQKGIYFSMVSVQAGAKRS

IVERMECTIN
Activity: substrate [+]
